For one data set, the target named is Cytochrome P450 2D6 (Homo sapiens, UniProt P10635).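 Further: CYP2D6 member of a cytochrome P450 panel assay.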
The next data set addresses Cytochrome P450 2C19 (Homo sapiens, UniProt P33261). Briefly: Cytochrome panel assay with activity outcomes. Panel member name: p450-cyp2c19 Compounds with AC50 equal or less than 10 uM are considered active. It is filed as functional.
A further data set has as its target Cytochrome P450 3A4 (Homo sapiens, UniProt P08684).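 Further: CYP3A4 tested as one member of a cytochrome P450 panel screen.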
Data set [1] concerns the target Voltage-dependent T-type calcium channel subunit alpha-1H (Homo sapiens, UniProt O95180). In kind it is functional.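 Further: channel activity triggered by adding a high calcium stimulation buffer.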
The test system of another data set is HeLa. Briefly: HeLa cell cytotoxicity, dose response, cytotoxicity control for MITF activator project, CellTiter-Glo luminescence, cherry-pick samples (AID 540259). In kind it is functional, cell-based. The conditions noted are these: Homo sapiens. (In general: ATP-based viability assays read luminescence as a measure of living cells.)
Data set [2] is described as follows: Counterscreen for AddAB inhibitors: absorbance-based bacterial cell-based high throughput dose response assay for inhibitors of bacterial viability. [Related pubchem assays (depositor defined):AID435030, AID449728, AID449731, AID488942, AID488955, AID488956]. It is filed as functional. (Counterscreens check selectivity or assay interference.)
The next data set addresses T1, Exodeoxyribonuclease V (Escherichia coli (strain K12), UniProt P04993+P07648+P08394).
T1 sequence (P04993 whole entry): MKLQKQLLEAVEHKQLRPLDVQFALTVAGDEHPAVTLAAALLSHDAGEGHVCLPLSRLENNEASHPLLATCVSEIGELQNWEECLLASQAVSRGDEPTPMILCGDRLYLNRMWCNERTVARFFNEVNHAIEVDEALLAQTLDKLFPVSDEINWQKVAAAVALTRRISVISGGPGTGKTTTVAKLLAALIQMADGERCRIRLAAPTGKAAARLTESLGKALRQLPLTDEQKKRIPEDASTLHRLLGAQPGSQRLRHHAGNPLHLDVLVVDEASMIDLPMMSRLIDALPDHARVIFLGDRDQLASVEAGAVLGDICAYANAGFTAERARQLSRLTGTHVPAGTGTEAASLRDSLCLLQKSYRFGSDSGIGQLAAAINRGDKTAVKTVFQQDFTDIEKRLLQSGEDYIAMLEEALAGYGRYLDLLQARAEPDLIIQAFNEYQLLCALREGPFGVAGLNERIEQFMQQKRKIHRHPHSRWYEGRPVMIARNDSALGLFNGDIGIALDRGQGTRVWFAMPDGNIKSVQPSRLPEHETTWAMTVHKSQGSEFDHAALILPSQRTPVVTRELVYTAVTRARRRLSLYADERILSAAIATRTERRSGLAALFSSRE
T1 sequence (P07648 whole entry): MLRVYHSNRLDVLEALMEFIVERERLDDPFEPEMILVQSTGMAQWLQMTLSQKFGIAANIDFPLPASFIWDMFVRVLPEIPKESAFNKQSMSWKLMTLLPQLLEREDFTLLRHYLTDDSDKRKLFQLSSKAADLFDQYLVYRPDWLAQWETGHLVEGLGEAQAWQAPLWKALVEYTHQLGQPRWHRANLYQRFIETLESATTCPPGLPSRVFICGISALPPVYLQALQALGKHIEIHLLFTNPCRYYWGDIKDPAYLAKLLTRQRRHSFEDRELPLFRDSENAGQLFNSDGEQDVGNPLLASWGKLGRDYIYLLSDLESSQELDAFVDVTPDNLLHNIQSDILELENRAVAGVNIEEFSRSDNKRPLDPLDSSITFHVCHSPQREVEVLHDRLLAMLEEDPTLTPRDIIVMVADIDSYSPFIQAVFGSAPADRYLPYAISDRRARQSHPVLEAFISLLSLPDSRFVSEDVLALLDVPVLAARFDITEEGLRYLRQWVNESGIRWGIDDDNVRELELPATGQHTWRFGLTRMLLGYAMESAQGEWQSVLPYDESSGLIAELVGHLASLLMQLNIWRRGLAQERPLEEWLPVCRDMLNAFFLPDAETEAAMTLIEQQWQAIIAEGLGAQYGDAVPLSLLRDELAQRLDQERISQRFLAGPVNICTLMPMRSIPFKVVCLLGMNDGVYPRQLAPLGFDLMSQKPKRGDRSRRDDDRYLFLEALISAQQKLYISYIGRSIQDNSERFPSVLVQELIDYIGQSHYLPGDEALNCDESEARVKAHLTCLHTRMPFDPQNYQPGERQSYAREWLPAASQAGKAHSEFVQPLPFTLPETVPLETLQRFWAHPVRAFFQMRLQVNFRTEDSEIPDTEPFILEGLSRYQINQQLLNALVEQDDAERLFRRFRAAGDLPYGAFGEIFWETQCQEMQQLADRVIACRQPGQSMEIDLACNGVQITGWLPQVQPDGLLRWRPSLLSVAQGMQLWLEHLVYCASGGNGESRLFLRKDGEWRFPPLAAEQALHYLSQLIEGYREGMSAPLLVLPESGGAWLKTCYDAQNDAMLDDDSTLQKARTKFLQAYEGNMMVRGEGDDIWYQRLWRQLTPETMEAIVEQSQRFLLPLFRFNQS
T1 sequence (P08394 whole entry): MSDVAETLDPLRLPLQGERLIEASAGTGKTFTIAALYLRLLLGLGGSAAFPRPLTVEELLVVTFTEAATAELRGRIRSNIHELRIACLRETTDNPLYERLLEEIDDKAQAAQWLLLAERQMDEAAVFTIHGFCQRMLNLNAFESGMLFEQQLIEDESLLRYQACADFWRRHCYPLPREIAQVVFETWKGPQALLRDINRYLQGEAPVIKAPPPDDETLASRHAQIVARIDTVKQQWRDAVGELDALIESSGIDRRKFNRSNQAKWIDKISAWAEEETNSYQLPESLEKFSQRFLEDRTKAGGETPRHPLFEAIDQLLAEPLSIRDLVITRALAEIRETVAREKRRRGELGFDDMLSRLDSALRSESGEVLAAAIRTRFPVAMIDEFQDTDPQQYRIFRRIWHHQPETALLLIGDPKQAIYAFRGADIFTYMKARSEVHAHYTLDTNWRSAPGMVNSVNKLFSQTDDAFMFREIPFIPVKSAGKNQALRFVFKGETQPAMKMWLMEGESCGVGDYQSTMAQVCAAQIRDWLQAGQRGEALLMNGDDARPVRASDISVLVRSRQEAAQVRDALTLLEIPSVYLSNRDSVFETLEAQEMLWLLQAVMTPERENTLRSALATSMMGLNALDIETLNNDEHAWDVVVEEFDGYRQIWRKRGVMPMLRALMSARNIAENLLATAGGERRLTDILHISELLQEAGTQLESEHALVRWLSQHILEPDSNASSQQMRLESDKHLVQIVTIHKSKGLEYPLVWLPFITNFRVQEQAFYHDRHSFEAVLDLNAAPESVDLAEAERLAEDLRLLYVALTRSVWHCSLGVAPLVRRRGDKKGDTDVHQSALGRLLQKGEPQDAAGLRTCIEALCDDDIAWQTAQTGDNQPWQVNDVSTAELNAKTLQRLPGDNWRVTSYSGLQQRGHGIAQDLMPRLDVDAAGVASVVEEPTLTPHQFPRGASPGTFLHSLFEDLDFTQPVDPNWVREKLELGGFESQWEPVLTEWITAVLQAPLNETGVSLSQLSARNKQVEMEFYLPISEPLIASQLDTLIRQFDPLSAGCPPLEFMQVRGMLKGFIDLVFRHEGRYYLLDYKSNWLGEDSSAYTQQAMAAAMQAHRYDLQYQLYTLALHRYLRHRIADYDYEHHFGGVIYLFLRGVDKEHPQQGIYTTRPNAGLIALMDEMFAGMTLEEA
Briefly: E. coli RecBCD inhibitors, dose response, counter-screen for AddAB inhibitor project, absorbance, V66 E. coli, mutant T4 phage (AID 492957). In kind it is functional, cell-based, Escherichia coli str. K-12 substr. MG1655.

A further data set deals with T2, Cytochrome P450 1A2 (Homo sapiens, UniProt P05177).
T2 sequence (P05177 whole entry): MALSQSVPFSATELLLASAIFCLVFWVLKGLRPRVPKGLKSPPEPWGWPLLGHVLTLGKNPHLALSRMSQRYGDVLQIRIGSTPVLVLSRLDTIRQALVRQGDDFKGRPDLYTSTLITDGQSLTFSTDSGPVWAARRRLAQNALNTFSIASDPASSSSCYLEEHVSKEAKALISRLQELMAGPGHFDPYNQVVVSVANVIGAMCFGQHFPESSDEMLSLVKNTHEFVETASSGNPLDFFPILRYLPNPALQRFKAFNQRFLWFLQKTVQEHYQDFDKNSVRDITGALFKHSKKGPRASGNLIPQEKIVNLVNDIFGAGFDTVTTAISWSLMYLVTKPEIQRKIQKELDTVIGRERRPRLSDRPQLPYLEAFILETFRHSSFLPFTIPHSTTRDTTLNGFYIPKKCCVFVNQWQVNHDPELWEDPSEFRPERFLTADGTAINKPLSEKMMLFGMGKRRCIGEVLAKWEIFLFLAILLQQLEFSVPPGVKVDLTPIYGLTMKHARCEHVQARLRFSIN

Data set [3] can be described thus: Shn3 3'UTR reporter inhibitors, dose response, cell-based, Clone20 osteoblasts, firefly luciferase, cherry-picked (AID 624132).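 Further: firefly luciferase luminescence from reporter carrying the Shn3 3'UTR in osteoblasts.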 In kind it is functional.
A short description of data set [4]: cytotoxicity toward NIH3T3 fibroblasts, dose response, counter-screen, cell-based, ATP luminescence, mouse fibroblasts (AID 2010).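 Further: cells exposed to compound for about 90 hours before reading.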 In kind it is functional.
Data set [5] in a line: HepG2 cell cytotoxicity, dose response, cytotoxicity control for Shn3 inhibitor project, CellTiter-Glo, cherry-picked (AID 624134). It is filed as functional, cell-based.
Data set [6] is described as follows: inhibitors of intracellular T. cruzi replication, confirmation, NIH3T3 host cells, beta-gal luminescence (AID 2044).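 Further: intracellular parasites grown in NIH/3T3 mouse fibroblasts as host cells; luminescent beta-galactosidase reporter signal from transgenic T. cruzi replicating inside host cells; inhibitors lower the luminescence signal.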 It is filed as functional, cell-based.

The structures appear in SMILES notation. The source made the active and inactive calls.

Cytochrome P450 3A4, sequence (P08684 whole entry): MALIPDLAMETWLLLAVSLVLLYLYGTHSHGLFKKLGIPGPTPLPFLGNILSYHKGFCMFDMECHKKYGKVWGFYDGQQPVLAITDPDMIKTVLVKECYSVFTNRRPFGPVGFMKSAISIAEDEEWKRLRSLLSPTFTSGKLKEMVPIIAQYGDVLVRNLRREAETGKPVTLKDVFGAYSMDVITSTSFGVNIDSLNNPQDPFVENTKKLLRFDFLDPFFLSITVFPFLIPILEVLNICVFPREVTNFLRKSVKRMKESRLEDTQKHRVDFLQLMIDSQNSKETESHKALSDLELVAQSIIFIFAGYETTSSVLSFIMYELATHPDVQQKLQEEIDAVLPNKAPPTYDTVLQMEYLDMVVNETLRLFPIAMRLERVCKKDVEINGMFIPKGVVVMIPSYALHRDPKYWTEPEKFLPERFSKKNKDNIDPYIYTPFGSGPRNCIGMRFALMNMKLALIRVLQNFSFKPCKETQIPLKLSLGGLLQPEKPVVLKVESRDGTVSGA
Cytochrome P450 2D6, sequence (P10635 whole entry): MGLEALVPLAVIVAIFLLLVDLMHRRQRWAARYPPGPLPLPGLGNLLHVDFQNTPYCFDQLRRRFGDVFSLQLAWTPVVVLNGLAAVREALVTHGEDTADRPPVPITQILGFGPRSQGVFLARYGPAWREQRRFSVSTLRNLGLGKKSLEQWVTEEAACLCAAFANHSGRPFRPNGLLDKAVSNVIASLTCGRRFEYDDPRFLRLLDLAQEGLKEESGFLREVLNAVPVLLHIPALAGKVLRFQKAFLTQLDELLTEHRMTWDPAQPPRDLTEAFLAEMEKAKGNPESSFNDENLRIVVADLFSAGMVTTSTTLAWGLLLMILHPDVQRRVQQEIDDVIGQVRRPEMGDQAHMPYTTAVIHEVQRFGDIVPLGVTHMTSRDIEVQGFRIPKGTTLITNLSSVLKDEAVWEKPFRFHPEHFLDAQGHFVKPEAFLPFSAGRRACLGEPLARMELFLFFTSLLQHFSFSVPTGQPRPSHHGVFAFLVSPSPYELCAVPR
Cytochrome P450 2C19, sequence (P33261 whole entry): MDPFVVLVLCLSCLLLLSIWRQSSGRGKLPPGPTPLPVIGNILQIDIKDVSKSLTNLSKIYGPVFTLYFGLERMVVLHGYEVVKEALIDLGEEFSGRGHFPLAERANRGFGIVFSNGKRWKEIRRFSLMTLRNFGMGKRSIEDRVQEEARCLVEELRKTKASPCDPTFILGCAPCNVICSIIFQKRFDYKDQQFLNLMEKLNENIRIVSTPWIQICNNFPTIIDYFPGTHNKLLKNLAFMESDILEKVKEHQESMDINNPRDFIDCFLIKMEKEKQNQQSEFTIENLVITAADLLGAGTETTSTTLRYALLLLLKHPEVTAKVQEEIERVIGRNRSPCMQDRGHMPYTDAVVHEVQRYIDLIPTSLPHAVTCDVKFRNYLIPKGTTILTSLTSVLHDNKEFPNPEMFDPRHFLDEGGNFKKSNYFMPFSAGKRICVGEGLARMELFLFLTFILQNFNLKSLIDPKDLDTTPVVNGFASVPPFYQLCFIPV
Voltage-dependent T-type calcium channel subunit alpha-1H, sequence (O95180 whole entry): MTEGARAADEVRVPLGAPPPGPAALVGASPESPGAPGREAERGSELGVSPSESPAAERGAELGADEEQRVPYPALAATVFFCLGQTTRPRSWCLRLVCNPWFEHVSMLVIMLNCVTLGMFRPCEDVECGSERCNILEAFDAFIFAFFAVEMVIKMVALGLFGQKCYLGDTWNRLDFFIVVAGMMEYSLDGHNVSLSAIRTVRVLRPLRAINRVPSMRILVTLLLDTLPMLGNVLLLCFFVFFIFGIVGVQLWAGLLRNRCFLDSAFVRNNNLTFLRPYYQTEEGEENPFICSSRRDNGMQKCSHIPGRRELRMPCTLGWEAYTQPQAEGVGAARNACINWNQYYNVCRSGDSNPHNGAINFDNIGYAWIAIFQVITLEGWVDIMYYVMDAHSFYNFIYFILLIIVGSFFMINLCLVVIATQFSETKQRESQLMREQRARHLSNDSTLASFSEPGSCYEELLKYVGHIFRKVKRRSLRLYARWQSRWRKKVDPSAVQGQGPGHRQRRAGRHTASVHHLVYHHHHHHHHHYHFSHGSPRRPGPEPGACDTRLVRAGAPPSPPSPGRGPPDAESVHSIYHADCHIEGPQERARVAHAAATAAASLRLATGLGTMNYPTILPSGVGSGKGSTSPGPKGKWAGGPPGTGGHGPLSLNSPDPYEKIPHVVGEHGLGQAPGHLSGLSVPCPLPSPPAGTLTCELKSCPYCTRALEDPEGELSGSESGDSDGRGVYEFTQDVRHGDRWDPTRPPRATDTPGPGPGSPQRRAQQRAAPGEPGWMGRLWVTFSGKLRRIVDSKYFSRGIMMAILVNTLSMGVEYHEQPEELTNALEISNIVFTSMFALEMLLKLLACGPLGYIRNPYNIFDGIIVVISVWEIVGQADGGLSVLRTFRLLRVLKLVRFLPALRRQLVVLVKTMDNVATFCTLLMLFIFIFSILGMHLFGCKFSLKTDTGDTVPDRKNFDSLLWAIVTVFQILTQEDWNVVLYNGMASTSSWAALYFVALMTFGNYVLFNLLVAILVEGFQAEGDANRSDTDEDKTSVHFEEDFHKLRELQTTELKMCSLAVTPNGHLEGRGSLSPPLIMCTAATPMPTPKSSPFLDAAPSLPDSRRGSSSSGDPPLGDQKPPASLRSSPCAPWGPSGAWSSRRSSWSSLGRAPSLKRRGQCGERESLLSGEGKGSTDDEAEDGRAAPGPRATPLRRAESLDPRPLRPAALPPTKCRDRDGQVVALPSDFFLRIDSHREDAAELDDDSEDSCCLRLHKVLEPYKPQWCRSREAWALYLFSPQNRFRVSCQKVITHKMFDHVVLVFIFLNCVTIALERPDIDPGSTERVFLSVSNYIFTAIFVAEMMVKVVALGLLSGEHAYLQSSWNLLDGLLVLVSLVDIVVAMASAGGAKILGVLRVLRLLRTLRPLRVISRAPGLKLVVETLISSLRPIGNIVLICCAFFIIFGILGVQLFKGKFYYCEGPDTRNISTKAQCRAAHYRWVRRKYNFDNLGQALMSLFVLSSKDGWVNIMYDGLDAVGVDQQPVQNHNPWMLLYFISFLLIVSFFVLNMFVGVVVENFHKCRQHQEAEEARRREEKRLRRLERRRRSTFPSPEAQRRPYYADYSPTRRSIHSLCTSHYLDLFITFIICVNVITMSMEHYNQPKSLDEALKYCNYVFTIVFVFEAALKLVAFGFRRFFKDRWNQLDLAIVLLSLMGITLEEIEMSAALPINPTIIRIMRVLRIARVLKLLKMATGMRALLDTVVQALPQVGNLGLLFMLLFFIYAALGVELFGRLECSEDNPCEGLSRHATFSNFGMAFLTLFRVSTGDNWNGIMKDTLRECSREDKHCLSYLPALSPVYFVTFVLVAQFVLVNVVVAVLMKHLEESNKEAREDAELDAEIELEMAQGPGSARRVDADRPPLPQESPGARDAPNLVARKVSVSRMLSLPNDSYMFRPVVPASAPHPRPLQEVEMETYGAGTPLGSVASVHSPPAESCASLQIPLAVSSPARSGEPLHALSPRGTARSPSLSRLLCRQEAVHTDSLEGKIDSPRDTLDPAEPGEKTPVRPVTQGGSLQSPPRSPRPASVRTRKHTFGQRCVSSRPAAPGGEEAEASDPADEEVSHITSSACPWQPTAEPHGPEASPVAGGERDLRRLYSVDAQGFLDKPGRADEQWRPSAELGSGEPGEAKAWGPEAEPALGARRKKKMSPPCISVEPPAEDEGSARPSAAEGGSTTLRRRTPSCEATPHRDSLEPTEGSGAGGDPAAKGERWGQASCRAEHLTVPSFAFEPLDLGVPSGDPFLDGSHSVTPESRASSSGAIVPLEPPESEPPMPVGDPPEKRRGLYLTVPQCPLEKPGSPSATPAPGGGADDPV

As a reminder, the AC50 is the midpoint of the concentration-response curve, whichever way the signal moves. `CC(C)NC(=O)N1CCCC2(CCN(C(=O)c3cccc(F)c3)CC2)C1`: the AC50 entry at Cytochrome P450 2D6 is “inconclusive”; at Cytochrome P450 2C19, “inconclusive”; at Cytochrome P450 3A4, 25.1 µM (inconclusive).

The term EC50 denotes the concentration giving half of the maximal effect. Turning to `Cc1ccc(-c2nnn(CC(=O)N(c3ccccc3)C(C(=O)NCC3CCCO3)c3ccc(Cl)cc3)n2)cc1` (stereo unspecified), the AC50 result was “inconclusive” at Cytochrome P450 2D6, 1.12 µM (inconclusive) on Cytochrome P450 2C19 (read-out: AC50) and 39.8 µM (inconclusive) at Cytochrome P450 3A4. For the same compound, the EC50 in [1] was 11.1 µM (active).

Regarding `Cc1nc(-c2noc(-c3ccccc3Cl)n2)c(C(F)(F)F)o1`, in the data set with HeLa, the AC50 was 291 µM (active).

By IC50 is commonly meant the point on the concentration scale where inhibition reaches its midpoint. `CCCS(=O)(=O)N1CCC(C(=O)NCc2ccccc2Cl)CC1`: the IC50 (in [2]; on Exodeoxyribonuclease V) was > 119 µM (inactive) each time.

As for `CCOC(=O)NCN1C(=O)C2C3C=CC(C3)C2C1=O` (stereo unspecified), the AC50 entry on Cytochrome P450 2D6 is “inconclusive”; on Cytochrome P450 3A4, 6.31 µM (inconclusive); on Cytochrome P450 1A2, 14.1 µM (inconclusive).

As to `Cc1ccc(CNC(=O)c2ccc3c(O)c(O)c(-c4ccc(C)cc4)nc3c2)cc1`, the IC50 (in data set [2]; at Exodeoxyribonuclease V) was > 119 µM (inactive) in each case. Moreover, the AC50 is 2.82 µM (active) in [3] and 3.49 µM (active) in [5]. Moreover, the EC50 was 7.02 µM (active) in data set [4] and 1.14 µM (active) in data set [6].

With `O=C1CN(/N=C\c2ccc(-c3ccc([N+](=O)[O-])cc3)o2)C(O)=N1`, the concentration at half-maximal activity (AC50) result on Cytochrome P450 2D6 is “inactive”.

As for `Cc1ccc(/C=N/c2sc3c(c2C#N)CCC3)s1`, the AC50 with HeLa is 82 µM (active).

These data come from ChEMBL document CHEMBL1201862, “PubChem BioAssay data set” (2004).
